Entries after “also recorded” stand apart in the source; their conditions may differ.
Key:
[1] = system: CSPG production by astrocytes; test: Western blot of astrocyte conditioned medium, MAB2030 (chondroitin sulfate GAG stubs); assay type: cell-based, mouse; conditions: astrocyte conditioned media, 50 μM, 48 hours
Excerpt: Astrocytes are major producers of CSPGs following injury in the CNS [Jones, L. L., Margolis, R. U. & Tuszynski, M. H. The chondroitin sulfate proteoglycans neurocan, brevican, phosphacan, and versican are differentially regulated following spinal cord injury. Experimental Neurology 182, 399-411 (2003); Tang, X., Davies, J. E. & Davies, S. J. Changes in distribution, cell associations, and protein expression levels of NG2, neurocan, phosphacan, brevican, versican V2, and tenascin-C during acute to chronic maturation of spinal cord scar tissue. […] The Journal of neuroscience: the official journal of the Society for Neuroscience 20, 2427-2438 (2000); McKeon, R. J., Jurynec, M. J. & Buck, C. R. The chondroitin sulfate proteoglycans neurocan and phosphacan are expressed by reactive astrocytes in the chronic CNS glial scar. The Journal of neuroscience: the official journal of the Society for Neuroscience 19, 10778-10788 (1999); Haas, C. A., Rauch, U., Thon, N., Merten, T. & Deller, T. Entorhinal cortex lesion in adult rats induces the expression of the neuronal chondroitin sulfate proteoglycan neurocan in reactive astrocytes. The Journal of neuroscience: the official journal of the Society for Neuroscience 19, 9953-9963 (1999)] and they may help drive progression of disability in a model of progressive MS [Mayo, L. et al. Regulation of astrocyte activation by glycolipids drives chronic CNS inflammation. Nature medicine 20, 1147-1156 (2014)]. Therefore astrocytes were used as model cells to determine the ability of the sugar analogs to reduce synthesis of CSPGs. Since CSPGs are exported out of cells, the conditioned media from analog-treated astrocytes were probed by Western blots (FIG. 4). We used antibodies to both the stubs of chondroitin sulfate GAGs attached to the core protein (MAB2030) and to intact 4-sulfated chondroitin sulfate sidechains (2H6) (FIG. 4a). Particularly, we used the 2H6 antibody to label intact 4-sulfated chondroitin sulfate sidechains, and the MAB2030 antibody to detect the stubs of chondroitin sulfate GAGs attached to the core protein. […] 1998, 160 (8), 3812-3819. Poole Poole C. A.; Glant T. T.; Schofield J. R.; Chondrons from articular cartilage. (IV). Immunolocalization of proteoglycan epitopes in isolated canine tibial chondrons. J. Histochem. Cytochem. 1991, 39 (9), 1175-1187].
Astrocytes were plated in uncoated 6-well plates (3 replicate wells per treatment) at 1×10^6 cells/well in mixed glial media, and incubated at 5% CO2 and 37° C. Astrocytes were treated with compounds at 50 μM in AIM-V media for 48 hours. Media was pooled from 3 replicate wells in 15 ml 100K cutoff centricon tubes (EMD Millipore, #UFC905008), which were spun on an ultracentrifuge at 5000× g for 2 cycles of 10 minutes each. When harvested, the cell lysate was kept on ice for 5 minutes with 250 μL of RIPA buffer (ThermoFisher Scientific #89900) containing proteinase inhibitor, and then collected and centrifuged at 14000 g for 5 minutes. Total protein was quantified using a Bradford assay. Conditioned media that were to be probed for chondroitin 4-sulfate GAGs (Millipore, #MAB2030) were first digested with 0.2 U/ml chondroitinase ABC for overnight at 37° C. to remove chondroitin sulfate sidechains. Blots that were to be probed with CSA (2H6, Cosmo) or CS56 (Abcam #ab11570) were not exposed to chondroitinase ABC. Samples were heat denatured with NuPAGE® LDS Sample buffer at 70° C. for 10 minutes and then loaded into 3-8% tris-acetate pre-cast gels (ThermoFisher, #EA0478BOX). The gels were electrophoresed at a constant 150 V for 90 minutes and transferred to a […] polyvinylidene fluoride membrane at a constant 250 mA for 60 minutes. The membranes were blocked for one hour with 10% skim milk in Tris-buffered saline (TBS; 0.9% NaCl, 10 mM Tris-HCl, pH 7.5) containing 0.5% Tween 20 (TBS-T). Primary antibodies were added in 3% skim milk and incubated overnight at 4° C. […]

splenocytes [2] = test: Splenocyte thymidine proliferation assay (anti-CD3/anti-CD28); assay type: cell-based, mouse; conditions: 25 μM, 48 hours
Procedure: It was assessed whether the glucosamine analogs have immunomodulatory properties on splenocytes isolated in culture. T cells within the splenocyte pool were polyclonally activated with anti-CD3 and anti-CD28 antibodies in the presence of compounds for 48 hours, and proliferation was determined by the uptake of tritiated thymidine and expressed as counts per minute. The relative change in proliferation of treated versus control splenocytes was taken in order to rank the compounds across multiple independent experiments (FIG. 8a).
The spleens were isolated from 8-10-week-old female C57BL/6 mice and homogenized. The cells were isolated by Ficoll gradient and spun for 30 min at 1,800 r.p.m. The cell suspension was removed and the cells were washed once with PBS. The cell pellet was subsequently re-suspended in Roswell Park Memorial Institute media containing 10% fetal bovine serum, 1% penicillin/streptomycin, 1% sodium pyruvate and 1% L-glutamine. Trypan blue exclusion was used to count live cells, and the cells were plated at 2.5×10^5 cells per well in a round-bottom 96-well plate and activated with 1,000 ng/ml plate-bound anti-CD3 and 1,000 ng/ml anti-CD28 suspended in media to preferentially activate T lymphocytes. Compounds were added at final concentrations of 25 μM. The cells were kept at 37° C. and 5% CO2 for 30 h, after which 10 μl/well (1 μCi per well) of 3H-thymidine was added for 18 h. The cells containing thymidine were harvested onto filter mats using a cell harvester and mats were allowed to dry for 24 h. The results were read by liquid scintillation counts.

TNFα = TNFα ELISA of LPS-stimulated bone marrow-derived macrophages; assay type: cell-based, mouse; conditions: BMDMs, 50 μM, LPS 100 ng/ml, 24 hours
Procedure: Multiple Sclerosis: Mechanisms and Immunotherapy. Neuron 97, 742-768 (2018)]. It was tested whether the sugar analogs could affect the activity of macrophages, using bone marrow-derived macrophages (BMDMs) stimulated with lipopolysaccharide (LPS, 100 ng/ml). The sugar analogs were added at 50 μM prior to LPS, and the conditioned medium was collected after 24 hours and assayed for levels of the secreted cytokine TNFα. […] Testing Toxicity of Sugar Analogs
Femurs were carefully removed from euthanized female C57BI/6 mice, and marrow was flushed into a culture plate with cold complete bone marrow growth medium (DMEM, 10% fetal bovine serum, and the supplements 1% penicillin/streptomycin, 1% glutamine, 1% non-essential amino acids, and 10% supernatant from L929 cell-line enriched in macrophage-colony stimulating factor). Cells were spun at 1100 rpm for 10 minutes, resuspended in fresh growth medium and plated at 10×10^6 cells/ml in a 10 cm culture dish. Cells were grown in DMEM with supplements and L929 supernatant for 5 days, then half the medium was replaced with fresh growth medium. On day 7 growth medium was replaced with DMEM with 10% FBS and supplements. Cells were used on day 8, and experiments were conducted in DMEM with 1% FBS and supplements unless otherwise specified.
BMDM were plated at 25,000 cells in 96-well plates in DMEM+L929 media. After 24 hours media was changed to DMEM+1% FBS. One hour later, cells were treated with […] compounds or PBS. After 1 hour LPS (final concentration 100 ng/ml) was added. Following 24 hours, conditioned media was harvested for TNFα ELISA (Thermo Scientific), which was performed according to manufacturer's instructions.

splenocytes [3] = test: Propidium iodide DNA cell cycle flow cytometry of splenocytes; assay type: cell-based, mouse; conditions: activated splenocytes
Excerpt: Cell-cycle flow cytometry with propidium iodide was used to corroborate the above results, and ensure the reduction in proliferation was not due to cell death. […] To further investigate whether the reduction of proliferation was due to cell death, Annexin V and propidium iodide staining were used to differentiate necrotic cells (propidium iodide+), apoptotic cells (annexin V+), dead cells (propidium iodide+ and annexin V+), and live cells (propidium iodide-annexin V−).
Cell cycle staining with propidium iodide (PI) and analysis by flow cytometry gives percentage of cells in apoptosis, G1, G2, and synthesis, and apoptosis. Following a membrane permeabilization, PI chelates to DNA and level of staining specifies the stage of the cell cycle (e.g., G2 phase will have twice the DNA and thus twice the PI signal as G1 phase, apoptotic cells contain less DNA than healthy cells and are identified by low PI staining). 1×10^6 splenocytes were used per sample, with four replicates per condition. Cells were collected into a tube with PBS and centrifuged (200 r.p.m. for 5 minutes). […] Suspension was transferred to a FACs tube and analyzed. Annexin V/Propidium iodide staining was detected using the Annexin V FITC apoptosis detection kit (BD Biosciences, #556547), which was performed according to manufacturer's instructions.

[4] = system: mice demyelinated with lysolecithin; test: Lysolecithin demyelination of the mouse spinal cord; assay type: in vivo; conditions: 100 mg/kg IP twice a day, Day 3 to Day 6; Day 7 post-demyelination; listed as difluorosamine
Procedure: On Day 0, 7 mice were injected with 0.5 μL of 1.0% lysolecithin in the ventral funiculus of the spinal cord. Thereafter, 4 mice were treated from Day 3 to Day 6 with saline vehicle IP twice a day. 3 mice were treated from Day 3 to Day 6 with difluorosamine 100 mg/kg IP twice a day. On Day 7, mice were transcardially perfused with cold PBS and 4% PFA. Thoracic spinal cords were dissected, fixed and analyzed. Sections adjacent to lesion epicenters were triple-stained for Olig2 (cells of the oligodendrocyte lineage), PDGFRα (oligodendrocyte precursor cell) and MBP (myelin). The number of Olig2+, Olig2+ PDGFRα+ (oligodendrocyte precursor cell), and Olig2+ PDGFRα− (presumed mature oligodendrocytes) cells per field of view were quantified blindly. Statistics were conducted using 1-tailed t-tests.

Structure (SMILES): CCC(=O)OCC1OC(O)C(NC(C)=O)C(OC(=O)CC)[C@@H]1F (mixture of isomers) [Compound 11, 2-Acetamido-2,4-dideoxy-4-fluoro-3,6-di-O-propanoyl-α/β-D-glucopyranose]
- effect on CSPG production by astrocytes [1]: did not lower CSPG production in astrocytes
- splenocyte proliferation (splenocytes [2]): reduced splenocyte proliferation
- TNFα production by LPS-stimulated macrophages (TNFα): enhanced TNFα levels

Structure (SMILES): CC(=O)NC1C(O)OC(COC(C)=O)[C@@H](F)C1OC(C)=O (stereo in doubt) [Compound 10]
- percentage of cells in cell cycle phases (splenocytes [3]): reduced the percentage of cells in the S (DNA synthesis)-phase of the cell cycle

Structure (SMILES): CC(=O)NC1C(OC(C)=O)OC(COC(C)=O)C(F)(F)C1OC(C)=O [Compound 16, 2-Acetamido-1,3,6-tri-O-acetyl-2,4-dideoxy-4,4-difluoro-α/β-D-xylo-hexopyranose]
- percentage of Olig2+ oligodendrocyte lineage cells that are Olig2+ PDGFRα+ OPCs [4]: significant increase; also recorded: increased the proportion of oligodendrocyte precursor cells (OPCs)

— patent US12600740B2, “Fluorinated N-acetyl glucosamine analogs and xylose derivatives” (UTI Limited Partnership, priority 2018, dated 2026)
